# Data from ChEMBL document CHEMBL1909046, “DrugMatrix in vitro pharmacology data”.
# How the values were obtained:
# D(1A) dopamine receptor = D(1A) dopamine receptor (Homo sapiens, UniProt P21728); assay: DRUGMATRIX: Dopamine D1 radioligand binding (ligand: [3H] SCH-23390); format: cell membranes, CHO, Membrane; settings: cho; Not Active = under 50% inhibition at 10 µM
# [1] = target: Beta-3 adrenergic receptor (Homo sapiens, UniProt P13945); assay: DRUGMATRIX: Adrenergic beta3 radioligand binding (ligand: [125I] Cyanopindolol); format: cell membranes, HEK293, Membrane; settings: hek293; Not Active = under 50% inhibition at 10 µM
# [2] = target: 5-hydroxytryptamine receptor 4 (Cavia porcellus, UniProt O70528); format: cell membranes, Dunkin-Hartley, Striatum, Membrane; also: in other assays of this panel Not Active means under 50% inhibition at 10 µM
# [3] = target: T1, Alpha-2A adrenergic receptor (Homo sapiens, UniProt P08913); format: cell membranes, Sf9, Membrane; also: in other assays of this panel Not Active means under 50% inhibition at 10 µM
# T1 sequence (P08913 whole entry): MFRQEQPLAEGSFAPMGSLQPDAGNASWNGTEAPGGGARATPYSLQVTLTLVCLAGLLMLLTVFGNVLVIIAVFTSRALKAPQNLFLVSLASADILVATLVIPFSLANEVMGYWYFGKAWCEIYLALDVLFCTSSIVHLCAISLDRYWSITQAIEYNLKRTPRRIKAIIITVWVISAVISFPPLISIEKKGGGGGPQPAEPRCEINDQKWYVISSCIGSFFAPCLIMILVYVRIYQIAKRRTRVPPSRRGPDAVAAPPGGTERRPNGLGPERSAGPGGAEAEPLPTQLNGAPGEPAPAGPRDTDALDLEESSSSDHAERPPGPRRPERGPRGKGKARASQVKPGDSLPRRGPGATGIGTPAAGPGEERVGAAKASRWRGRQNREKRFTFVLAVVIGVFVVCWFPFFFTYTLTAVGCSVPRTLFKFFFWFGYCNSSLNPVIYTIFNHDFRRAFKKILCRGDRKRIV
# Caspase-1 = target: T2, Caspase-1 (Homo sapiens, UniProt P29466); parameters: species or system Escherichia coli;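 also: Caspase-1 enzyme inhibition assay with a peptide substrate; in other assays of this panel Not Active means under 50% inhibition at 10 µM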
# T2 sequence (P29466 whole entry): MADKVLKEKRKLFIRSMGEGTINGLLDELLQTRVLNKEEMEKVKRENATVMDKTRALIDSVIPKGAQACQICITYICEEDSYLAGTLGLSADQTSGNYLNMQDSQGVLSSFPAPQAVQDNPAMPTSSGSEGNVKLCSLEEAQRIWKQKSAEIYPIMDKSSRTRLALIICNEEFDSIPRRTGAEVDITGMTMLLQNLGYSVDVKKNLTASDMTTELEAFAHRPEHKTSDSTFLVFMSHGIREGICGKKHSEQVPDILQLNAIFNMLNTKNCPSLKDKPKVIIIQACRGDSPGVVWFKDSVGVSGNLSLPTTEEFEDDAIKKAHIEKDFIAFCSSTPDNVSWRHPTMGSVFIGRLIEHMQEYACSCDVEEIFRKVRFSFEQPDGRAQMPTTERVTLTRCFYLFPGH
# Cytochrome P450 3A4 = Cytochrome P450 3A4 (Homo sapiens, UniProt P08684); settings: bti-tn-5b1-4; also: in other assays of this panel Not Active means under 50% inhibition at 10 µM
# Sequence of Cytochrome P450 3A4 (P08684 whole entry): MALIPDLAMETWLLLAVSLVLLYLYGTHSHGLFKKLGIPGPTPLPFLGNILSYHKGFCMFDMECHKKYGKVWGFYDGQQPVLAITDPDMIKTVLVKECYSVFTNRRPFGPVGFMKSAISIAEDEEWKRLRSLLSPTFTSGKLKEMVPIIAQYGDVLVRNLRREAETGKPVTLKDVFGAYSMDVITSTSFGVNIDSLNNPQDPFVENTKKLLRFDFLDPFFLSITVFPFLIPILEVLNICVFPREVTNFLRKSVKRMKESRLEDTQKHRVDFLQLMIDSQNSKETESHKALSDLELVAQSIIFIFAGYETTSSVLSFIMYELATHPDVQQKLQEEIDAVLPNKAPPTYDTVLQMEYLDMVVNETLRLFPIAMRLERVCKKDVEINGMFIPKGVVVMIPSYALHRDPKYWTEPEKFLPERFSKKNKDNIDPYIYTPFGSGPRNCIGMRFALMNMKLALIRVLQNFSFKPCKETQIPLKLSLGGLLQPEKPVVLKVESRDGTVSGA
# Sequence of D(1A) dopamine receptor (P21728 whole entry): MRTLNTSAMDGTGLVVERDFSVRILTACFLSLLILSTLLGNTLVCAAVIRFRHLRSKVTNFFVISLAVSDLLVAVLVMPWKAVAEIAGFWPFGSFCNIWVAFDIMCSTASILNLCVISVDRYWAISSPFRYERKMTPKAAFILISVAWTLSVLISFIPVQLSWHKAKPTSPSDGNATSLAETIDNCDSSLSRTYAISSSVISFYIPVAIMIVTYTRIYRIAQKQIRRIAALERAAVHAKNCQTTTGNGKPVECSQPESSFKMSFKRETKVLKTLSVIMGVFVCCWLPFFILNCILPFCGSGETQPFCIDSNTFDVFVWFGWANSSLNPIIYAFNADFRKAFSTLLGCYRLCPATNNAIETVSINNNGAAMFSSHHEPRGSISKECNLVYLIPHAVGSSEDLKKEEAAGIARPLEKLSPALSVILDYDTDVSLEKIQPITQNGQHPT
# Sequence of 5-hydroxytryptamine receptor 4 (O70528 whole entry): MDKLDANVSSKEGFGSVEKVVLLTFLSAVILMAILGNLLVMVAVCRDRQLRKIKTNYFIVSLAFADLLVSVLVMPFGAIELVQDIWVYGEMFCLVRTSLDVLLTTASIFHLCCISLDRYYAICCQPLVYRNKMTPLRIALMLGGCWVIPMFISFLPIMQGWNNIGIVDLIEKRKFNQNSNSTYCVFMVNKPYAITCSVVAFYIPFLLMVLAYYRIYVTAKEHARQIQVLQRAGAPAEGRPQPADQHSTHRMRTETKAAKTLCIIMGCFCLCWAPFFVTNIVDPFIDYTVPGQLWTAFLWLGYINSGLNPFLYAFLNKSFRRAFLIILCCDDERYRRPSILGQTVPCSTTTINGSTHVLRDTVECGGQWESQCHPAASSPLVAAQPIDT
# Sequence of Beta-3 adrenergic receptor (P13945 whole entry): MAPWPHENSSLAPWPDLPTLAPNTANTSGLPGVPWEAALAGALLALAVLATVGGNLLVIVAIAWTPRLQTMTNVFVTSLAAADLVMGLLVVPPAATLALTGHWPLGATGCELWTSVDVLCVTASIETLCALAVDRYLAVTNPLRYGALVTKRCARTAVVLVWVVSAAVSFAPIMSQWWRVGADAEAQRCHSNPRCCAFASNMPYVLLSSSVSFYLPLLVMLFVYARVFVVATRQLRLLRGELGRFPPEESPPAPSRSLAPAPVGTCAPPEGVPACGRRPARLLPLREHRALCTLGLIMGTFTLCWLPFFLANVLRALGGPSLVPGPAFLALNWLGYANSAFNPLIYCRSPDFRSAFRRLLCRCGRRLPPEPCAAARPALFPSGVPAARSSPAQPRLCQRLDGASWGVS
Compound,IC50 (D(1A) dopamine receptor),IC50 [1],IC50 [2],IC50 ([3]; sf9),IC50 (Caspase-1),IC50 (Cytochrome P450 3A4),Ki (Cytochrome P450 3A4),Ki (D(1A) dopamine receptor),Ki [1],Ki [2],Ki ([3]; sf9),Ki (Caspase-1),IC50 ([3]; read-out: IC50),Ki ([3]; read-out: Ki)
CS(=O)(=O)c1ccc(C2=C(c3ccccc3)C(=O)OC2)cc1 [ROFECOXIB],Not Active,Not Active,Not Active,Not Active,Not Active,Not Active,Not Active,–,–,–,–,–,–,–
CC1(C)[C@H](C(=O)O)N2C(=O)C[C@H]2S1(=O)=O [SULBACTAM],Not Active,Not Active,Not Active,Not Active,Not Active,Not Active,Not Active,–,–,–,–,–,–,–
CC(N)C12CC3CC(CC(C3)C1)C2 (stereo not drawn) [RIMANTADINE],Not Active,Not Active,Not Active,Not Active,Not Active,Not Active,Not Active,–,–,–,–,–,–,–
CC[C@H](C)C(=O)O[C@H]1CCC=C2C=C[C@H](C)[C@H](CC[C@@H]3C[C@@H](O)CC(=O)O3)[C@H]21 [MEVASTATIN],Not Active,Not Active,Not Active,Not Active,Not Active,Not Active,Not Active,–,–,–,–,–,–,–
O=C(OC[C@H]1O[C@@H](OC(=O)c2cc(O)c(O)c(OC(=O)c3cc(O)c(O)c(O)c3)c2)[C@H](OC(=O)c2cc(O)c(O)c(OC(=O)c3cc(O)c(O)c(O)c3)c2)[C@@H](OC(=O)c2cc(O)c(O)c(OC(=O)c3cc(O)c(O)c(O)c3)c2)[C@@H]1OC(=O)c1cc(O)c(O)c(OC(=O)c2cc(O)c(O)c(O)c2)c1)c1cc(O)c(O)c(OC(=O)c2cc(O)c(O)c(O)c2)c1 [TANNIC ACID],Not Active,Not Active,Not Active,Not Active,Not Active,Not Active,Not Active,–,–,–,–,–,–,–
LEAD(IV) ACETATE,Not Active,Not Active,Not Active,Not Active,Not Active,Not Active,Not Active,Not Active,Not Active,Not Active,Not Active,Not Active,–,–
C[N+]1(C)[C@@H]2C[C@@H](OC(=O)[C@H](CO)c3ccccc3)C[C@H]1[C@@H]1O[C@@H]12.[Br-] [METHSCOPOLAMINE BROMIDE],Not Active,Not Active,Not Active,Not Active,Not Active,Not Active,Not Active,–,–,–,–,–,–,–
Cc1nnc(NS(=O)(=O)c2ccc(N)cc2)s1 [SULFAMETHIZOLE],Not Active,Not Active,Not Active,Not Active,Not Active,Not Active,Not Active,–,–,–,–,–,–,–
Cc1ccnc(NS(=O)(=O)c2ccc(N)cc2)n1 [SULFAMERAZINE],Not Active,Not Active,Not Active,Not Active,Not Active,Not Active,Not Active,–,–,–,–,–,–,–
OC[C@@H](O)[C@@H](O)[C@H](O)[C@H](O)CO [MANNITOL],Not Active,Not Active,Not Active,Not Active,Not Active,Not Active,Not Active,–,–,–,–,–,–,–
CCN(CC)N=O [N-NITROSODIETHYLAMINE],Not Active,Not Active,Not Active,Not Active,Not Active,Not Active,Not Active,–,–,–,–,–,–,–
CC(=O)O[C@]1(C(C)=O)CC[C@H]2[C@@H]3C[C@H](C)C4=CC(=O)CC[C@]4(C)[C@H]3CC[C@@]21C [MEDROXYPROGESTERONE ACETATE],Not Active,Not Active,Not Active,Not Active,Not Active,Not Active,Not Active,–,–,–,–,–,–,–
CCN1CCCC1CNC(=O)c1cc(S(N)(=O)=O)ccc1OC (stereo not drawn) [SULPIRIDE],Not Active,Not Active,Not Active,–,Not Active,Not Active,Not Active,–,–,–,–,–,2020 nM,757 nM
CC(Cl)(Cl)Cl [TRICHLOROETHANE],Not Active,Not Active,Not Active,Not Active,Not Active,Not Active,Not Active,–,–,–,–,–,–,–
CC1=C(/C=C/C(C)=C/C=C/C(C)=C/C(=O)O)C(C)(C)CCC1 [TRETINOIN],Not Active,Not Active,Not Active,Not Active,Not Active,Not Active,Not Active,–,–,–,–,–,–,–
C=CCc1ccc2c(c1)OCO2 [SAFROLE],Not Active,Not Active,Not Active,Not Active,Not Active,Not Active,Not Active,–,–,–,–,–,–,–
